Experimental data: US8530445B2, “Combinations of sapacitabine or CNDAC with DNA methyltransferase inhibitors such as decitabine and procaine” (Cyclacel Limited, priority 2008, dated 2013)
Like-named read-outs stand apart in the source and are kept apart here.

What was measured:
[1] = phase I, patients with a variety of cancers; cited from earlier work
[2] = system: colon cancer; settings: model of colon cancer; cited from earlier work
[3] = system: HL60 cells; assay: Cell cycle analysis (propidium iodide, flow cytometry); type: cell-based; settings: azacitidine 128 nM 72 and 96 hours, CNDAC 133 nM by 48 hours
Procedure: (§1) (A) HL60 cells were treated with 128 nM azacitidine for 24 hours followed by 128 nM azacitidine and 133 nM CNDAC for a further 48 hours. Cells were fixed and DNA stained with propidium iodide. Single agent controls were also included. (B) HL60 cells were treated with 128 nM azacitidine for 24 hours followed by 128 nM azacitidine and 133 nM CNDAC for a further 48 hours. Cells were stained with annexin V that detected apoptotic cells and propidium iodide to detect viable cells. Single agent controls were also included. Data is the average of two samples and representative of at least two independent experiments.
(A) HL60 cells were treated with 128 nM azacitidine for 24 hours followed by 128 nM azacitidine and 133 nM CNDAC for a further 72 hours. Cells were fixed and DNA stained with propidium iodide. Single agent controls were also included. […] Cells were stained with annexin V that detected apoptotic cells and propidium iodide to detect viable cells. […]
For combination analysis, cells were treated with azacitidine for 24 hours followed by a further 48 or 72 hours with azacitidine and CNDAC. […] Prior to analysis cells were washed twice in PBS containing 1% BSA followed by staining with propidium iodide (50 μg/ml) and ribonuclease A (50 μg/ml) in PBS containing 0.1% Triton X-100 and the cell cycle profile was determined by flow cytometry.

[4] = system: HL60 cells; assay: Immunoblotting of cell lysates for cleaved PARP; type: cell-based; settings: HL-60; 0.13 μM azacitidine, 0.13 μM CNDAC; 48 h-96 h total treatment
Procedure: Samples were collected at various times (indicated) after CNDAC addition. Cells were lysed, fractionated by SDS-PAGE, transferred to nitrocellulose and probed for cleaved PARP (a marker of apoptosis). Data is representative of two independent experiments.
HL-60 cells were treated with DMSO, 0.13 μM azacitidine, 0.13 μM CNDAC or both agents (AC). The schedule involved 24 h azacitidine or DMSO pretreatment followed by the addition of CNDAC or DMSO for the indicated times. Cells were harvested after 48 h-96 h total treatment time. The resulting lysates (20 μg) were resolved on 12% acrylamide Bis-Tris gels, transferred to nitrocellulose membranes and probed with the antibodies shown in FIG. 3. […] Cleaved PARP was also seen in the combination treatment.

[5] = system: HL60 cells; assay: Annexin V staining (apoptosis, flow cytometry); type: cell-based; settings: for apoptotic cells (annexin V): 96 hours total treatment, azacitidine 128 nM, CNDAC 133 nM for 72 hours; for proportion of apoptotic cells (annexin V, in words): azacitidine 72 and 96 hours, CNDAC 48 or 72 hours
Procedure: as §1
as §1, with “72” for “48”
Single agent treatments were also performed as controls.

[6] = system: cell line that is resistant to cytarabine; settings: cited from earlier work

Row | Compound | dose limiting toxicity [1] | tolerability [1] | anticancer activity [2] | effect on cell cycle profile (in words) [3] | induction of cleaved PARP (marker of apoptosis) [4] | apoptotic cells (annexin V) [5] [%] | proportion of apoptotic cells (annexin V, in words) [5] | IC50 ([6]; after 5-azacitidine (upregulation of dCK)) [µM] | IC50 ([6]; before 5-azacitidine) [µM]
1 | CCCCCCCCCCCCCCCC(=O)Nc1ccn(C2O[C@H](CO)[C@@H](O)[C@@H]2C#N)c(=O)n1 (stereo partly drawn) [(I), 1-(2-C-cyano-2-dioxy-β-D-arabino-pentofuranosyl)-N^4-palmitoyl cytosine] | myelosuppression | well tolerated | strong anticancer activity |  |  |  |  |  | 
2 | N#C[C@H]1[C@H](O)[C@@H](CO)O[C@H]1n1ccc(N)nc1=O [CNDAC, 1-(2-C-Cyano-2-deoxy-β-D-arabino-pentafuranosyl)-cytosine] |  |  |  | accumulation of cells in G2/M | induced cleaved PARP at later time points | 16.5 | little effect |  | 
3 | Nc1ncn([C@@H]2O[C@H](CO)[C@@H](O)[C@H]2O)c(=O)n1 [azacitidine, 4-amino-1-β-D-ribofuranosyl-s-triazin-2(1H)-one, reference compound] |  |  |  | accumulation of cells in sub-G1, G2/M, and >G2/M | small induction in cleaved PARP at early time points | 30.5 | small increase in the proportion of apoptotic cells |  | 
4 | Nc1ccn([C@@H]2O[C@H](CO)[C@@H](O)[C@@H]2O)c(=O)n1 [cytarabine] |  |  |  |  |  |  |  | 0.55 | 12.5
